According to patent US11058738B2, “Herbal preparation for accelerating wounds and skin inflammations healing, especially for treatment of herpes and acne, and its application” (WYŻSZA SZKOŁA MEDYCZNA W BIAŁYMSTOKU, priority 2015, dated 2021):

Tests used:
open wounds = test: Epithelialization and wound healing in mammals with open wounds; type: in vivo
Protocol: A following semi-solid preparation was prepared for the study which was obtained by mixing together: • 40% w/w Melittis melissophyllum L. from the whole plant, • 20% w/w of 96% ethyl alcohol, • 40% w/w Vaseline album—a hydrocarbon based substance used in lipophilic ointments.
The substance, etched by ethyl alcohol, is dissolved with help of heat in a smooth ointment medium for better dispersion ofbiologically active substances contained in the test extract. It could also be mixed in a cold lipophilic medium. It is important that the substance has been dissolved in the medium at the concentration below saturation.
In the study three groups of mammals with open wounds were involved:
I control group—no treatment was applied to the wound, even antiseptic one.
II group—a typical antiseptic agent was used, chlorhexidine, in accordance with a standard protocol regarding a treatment of an infected wound.
III group—the herbal preparation with a Melittis melissophyllum L. extract was used.
The herbal preparation applied in a treatment of open wounds. It was used in a similar way as described in Example I. The experiment confirmed that the herbal preparation based on Melittis melissophyllum L. definitely accelerates repair processes during the wound healing.

[1] = test system: neutrophil white blood cells from the wound surface; test: Phagocytic activity of white blood cells (latex particles) from the healing wound surface; type: in vivo, mammals
Protocol: Phagocytic activity of white blood cells was assessed using phagocytic index (PI)—a percentage of phagocytes containing absorbed latex particles, and an amount of phagocytes (IF)—the average number of particles per phagocyte.
The established phagocytic activity of neutrophil white blood cells from the wound surface in different periods of the wound healing, i.e. an increase in phagocytic index and number of phagocytes due to presence of the Melittis melissophyllum L. extract, is shown in Table 2. It was found for the first time that the Melittis melissophyllum L. extract has a high therapeutic activity during a wound healing period in all stages of the wound healing, accelerating the wound repair process and cells proliferation, therefore ensuring the complete wound healing much earlier.

[H]/N=C(\N/C(=N/[H])NCCCCCCNC(=N)NC(=N)Nc1ccc(Cl)cc1)Nc1ccc(Cl)cc1 [Chlorhexidine, chlorhexidine]
complete epithelialization of the wound surface (open wounds): 12-th or 13-th | Beginning epitelialization (open wounds; topical): 3.9 ± 0.4 24-hours | Beginning of rejection of the crust (open wounds; topical): 7.6 ± 0.5 24-hours | Complete wound healing (open wounds; topical): 11.25 ± 0.19 24-hours | Full crust rejection (open wounds; topical): 10.5 ± 0.3 24-hours | IF (amount of phagocytes, average number of particles per 1 phagocyte) ([1]; 3 day after granulation): 10.0 ± 2.5 | PI (phagocytic index, percentage of phagocytes containing latex particles) ([1]; 3 day after granulation): 61.60 ± 9.49% | IF (amount of phagocytes, average number of particles per 1 phagocyte) ([1]; 5 day after granulation): 14.0 ± 3.0 | PI (phagocytic index, percentage of phagocytes containing latex particles) ([1]; 5 day after granulation): 59.01 ± 4.58% | IF (amount of phagocytes, average number of particles per 1 phagocyte) ([1]; 7 day after granulation): 11.0 ± 3.0 | PI (phagocytic index, percentage of phagocytes containing latex particles) ([1]; 7 day after granulation): 48.20 ± 5.51%
